# Laboratory results from ChEMBL document CHEMBL3044930, “Mannich base derivatives of 1,3,4-oxadiazole: synthesis and screening against Entamoeba histolytica” (Med Chem Res, 2013).
# Key:
# Entamoeba histolytica = test: Antiamoebic activity against Entamoeba histolytica HM-1:IMSS after 72 hr by eosin stain-based spectrophotometric analysis; assay type: functional, organism-based
# MCF7 = test: Cytotoxicity against Homo sapiens (human) MCF7 cells after 48 hr by MTT assay; assay type: cell-based; settings: MCF7, 48 h
Structure (SMILES),IC50 (Entamoeba histolytica) [µM],IC50 (MCF7) [µM]
Fc1ccc(N2CCN(Cn3nc(-c4ccncc4)oc3=S)CC2)cc1,0.245,> 250
COc1ccccc1N1CCN(Cn2nc(-c3ccncc3)oc2=S)CC1,1.06,> 250
S=c1oc(-c2ccncc2)nn1CN1CCN(c2ccccc2)CC1,3.47,
CCN1CCN(Cn2nc(-c3ccncc3)oc2=S)CC1,0.327,> 250
S=c1oc(-c2ccncc2)nn1CN1CCN(c2cccc(Cl)c2)CC1,2.57,
S=c1oc(-c2ccncc2)nn1CN1CCN(Cc2ccccc2)CC1,3.4,
S=c1oc(-c2ccncc2)nn1CN1CCN(c2ccccn2)CC1,2.82,
S=c1oc(-c2ccncc2)nn1CN1CCN(Cc2ccc3c(c2)OCO3)CC1,3.62,
FC(F)(F)c1ccccc1N1CCN(Cn2nc(-c3ccncc3)oc2=S)CC1,2.87,
CN1CCN(Cn2nc(-c3ccncc3)oc2=S)CC1,5.11,
